What was measured:
FOXO4 = FOXO4 knockdown by short hairpins: FOXO4 mRNA (QPCR) and punctate FOXO4 staining; format: cell-based, human; conditions: HCA2 fibroblasts, 8 days after 10Gy XRAY
Excerpt: FIG. 2. Knockdown of FOXO4 results in apoptosis rather than senescence in DNA-damaged IMR90 fibroblasts. A) Reduction in punctate FOXO4 staining and FOXO4 mRNA expression after 8 days 10Gy XRAY in HCA2 fibroblasts infected […] hairpins targeted at FOXO4. […] B) Increased cytoplasmic Cytochrome C staining (a marker of apoptosis; arrowheads) in DNA-damaged IMR90 cells infected with knockdown against FOXO4. The percentage apoptotic cells is quantified. C) Increased TUNEL staining (a second marker of apoptosis) in similar conditions a B.
FIG. 2A: HCA2 fibroblasts were infected with lentiviral particles containing a control shRNA-encoding vector targeted against a mature sequence in GFP (based on vector PLK0.1, Open Biosystems): 5′-[…]-3′ or two independent sequences in (human) FOXO4, shFOXO4-1: 5′-[…]-3′ and shFOXO4-2: 5′-[…]-3′. Following selection for two days in 0.5 μg/ml Puromycin cells were plated and processed as in FIG. 1 to determine FOXO4 mRNA expression and FOXO4 localization by immunofluorescence. FIG. 2B: IMR90 fibroblasts were infected and treated as in A). Following selection 2×10^5 cells were plated on coverslips and irradiated the next day. […] The percentage of cells with released Cytochrome C staining (translocated from punctual mitochondrial staining to diffuse or absent staining) was determined for 100 cells per condition. […]

[1] = tested on: MCF7 mammary carcinoma cells; assay: Cytochrome C release in MCF7 cells with FOXO4 knockdown treated with 5'-fluoro-uracil; format: cell-based, human; conditions: 5 μM, 40 h
Method: FIG. 11. Sensitization of melanoma cells other types of cancer to additional types of chemotherapy. A) A375 melanoma cells were incubated with the FOXO4-p53 blocking peptide mix in the presence or absence of 2 μM Cisplatin and after 4 days cellular morphology was visualized. […] B) MCF7 mammary carcinoma cells were infected with the short hairpins against FOXO4 and after puromycin selection treated with 5 μM 5′-fluoro-uracil. 40 h later the percentage Cytochrome C-release was scored. The immunofluorescence panels show staining of Cytochrome C. The top, middle and bottom left panels all show mitochondrial Cytochrome C staining. […] C) B16F10Luc mouse melanoma cells were infected with a mouse-specific short hairpin against FOXO4 and short hairpin #2 against human FOXO4 from FIG. 2 which shares sequence homology with mouse FOXO4. After puromycin selection cells were incubated with 10 μM Cisplatin and after 7 days cellular viability was determined by CellTiter 96® AQueous One Solution Cell Proliferation Assay (MTS).
FIG. 11A: 2×10^5 A375 melanoma cells were plated in 24-well plate chambers. The next day the cells were incubated with 50 μM DBD2-peptide or a mixture of 25 μM DBD2-peptide and 25 μM C-term peptide in the presence or absence of 2 μM Cisplatin. […]

A375 melanoma cells = assay: Surviving fraction (MTS) of A375-shGFP versus A375-shFOXO4 cells treated with chemotherapeutic agents; format: cell-based, human
Method: FIG. 12. FOXO4 inhibition on sensitizes A375 melanoma cells to inhibitors of the BRAF/MEK pathway. A) A375 cells stably infected with a control shRNA (shGFP) or an shRNA against FOXO4 (shFOXO4) were treated with the indicated concentrations of the BRAF^V600E-inhibitor PLX4032 and the percentage of the surviving fraction on was determined by Aqueous CellQuant assay either after day 6 (left panel) or day 11 (right panel). Note that for the right panel the cells were refreshed at day 7 with the exact same concentration on of PLX4032. B) Similar experiment as in A), except with the general RAF inhibitor RAF265. C) Similar experiment as in A), except with the MEK inhibitor AZD6244.
FIG. 12A: 2×10^4 A375-shGFP or A375-shFOXO4-2 cells were plated in triplicate in 96-well plate chambers. The next day the cells were incubated with the indicated concentrations of PLX4032 or left untreated. After 6 days the a CellTiter 96® AQueous One Solution Cell Proliferation Assay (MTS) was performed according to the manufacturer's instructions (Promega) to determine the relative number of cells versus Mock treated A375-shGFP or A375-shFOXO4-2 melanoma cells (Left panel). Additionally, in a separate experiment the cells were refreshed at day 7 with the same dose of PLX4032 and left for another 4 days after which the same procedure was performed. […]

JNK1/2 = conditions: in vitro and in cultured cells; literature; cited from earlier work

| Compound | knockdown of FOXO4 mRNA and punctate FOXO4 staining (FOXO4) | sensitivity of A375-shFOXO4 versus A375-shGFP melanoma cells (A375 melanoma cells) | further results |
| --- | --- | --- | --- |
| 5′-CCAGCTTCAGTCAGCAGTTAT-3′ [shFOXO4-1] | induce knockdown of FOXO4 mRNA and reduction in punctate FOXO4 |  |  |
| 5′-CGTCCACGAAGCAGTTCAAAT-3′ [shFOXO4-2] | induce knockdown of FOXO4 mRNA and reduction in punctate FOXO4 |  |  |
| O=c1[nH]cc(F)c(=O)[nH]1 [5-fluorouracyl] |  |  | sensitization of MCF7 cells by FOXO4 knockdown (Cytochrome C release) [1]: sensitized |
| N.N.[Cl][Pt][Cl] [Cisplatin] |  | more sensitive |  |
| Cn1c(Nc2ccc(C(F)(F)F)cc2)nc2cc(Oc3ccnc(-c4ncc(C(F)(F)F)[nH]4)c3)ccc21 [RAF265] |  | more sensitive |  |
| dDdQdSdRdPdVdQdPdFdLdQdLdTdTdPdRdKdPdRdPdPdRdRdRdQdRdRdKdKdRG [D-JNK1] |  |  | inhibition of JNK1/2 kinase activity (JNK1/2): selectively blocks access to its substrates |

Source: US20130288981A1, “TARGETING SENESCENT CELLS AND CANCER CELLS BY INTERFERENCE WITH JNK AND/OR FOXO4” (Buck Institute for Research on Aging, priority 2012, published 2013)
